# According to patent publication US8119624B2, “Fused phenyl amido heterocyclic compounds” (Pfizer Inc., priority 2006, dated 2012):
# Target: T1, Full-length glucokinase (beta cell isoform) (Homo sapiens, UniProt P35557)
# T1 construct: Full-length glucokinase (beta cell isoform) was His-tagged at N-terminus; His tag (N); made in house
# T1 sequence (P35557 1-465): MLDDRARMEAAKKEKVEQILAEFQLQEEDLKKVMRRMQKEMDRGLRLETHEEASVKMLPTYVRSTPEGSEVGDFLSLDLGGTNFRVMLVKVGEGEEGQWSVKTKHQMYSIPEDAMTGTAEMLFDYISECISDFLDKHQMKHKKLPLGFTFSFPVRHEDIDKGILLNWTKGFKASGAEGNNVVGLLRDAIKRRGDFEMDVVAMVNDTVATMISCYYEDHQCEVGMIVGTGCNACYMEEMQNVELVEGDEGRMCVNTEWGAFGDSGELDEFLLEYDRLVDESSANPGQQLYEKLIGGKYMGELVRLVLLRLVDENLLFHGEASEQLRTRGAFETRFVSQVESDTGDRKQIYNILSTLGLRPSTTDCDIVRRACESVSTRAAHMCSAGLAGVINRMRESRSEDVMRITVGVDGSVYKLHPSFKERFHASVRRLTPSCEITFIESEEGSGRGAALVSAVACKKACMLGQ
# Test: Glucokinase biochemical assay (PK/LDH-coupled, NADH depletion at 340 nm): % activation, EC50, % max activation
# Details: 5 mM glucose; for activation at 10 µM: 10 uM compound, % Activation=(Va/Vo−1)×100, read-out: % Activation at 10 uM; for EC50: GK activation, read-out: EC50; for Emax: fitted maximum activation, read-out: % Max Activation
# Summary of the method: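 Activation expressed as (Va/Vo−1)×100, where initial rates with and without compound come from NADH depletion at 340 nm over 200–900 s. Enzyme is His-tagged human beta-cell GK, full length, run at room temperature in HEPES buffer with 1 mM ATP and 5 mM glucose. DMSO 1%.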
SMILES,activation at 10 µM [%],EC50 [nM],Emax [%]
"Cn1ncc(NC(=O)c2cc(Oc3ccc(S(=O)(=O)C4CC4)cc3)c3c(c2)OC(C)(CO)C3)n1 (centres unmarked) [Example 246, 4-(4-Cyclopropanesulfonyl-phenoxy)-2-hydroxymethyl-2-methyl-2,3-dihydro-benzofuran-6-carboxylic acid (2-methyl-2H-[1,2,3]triazol-4-yl)-amide]",222,160,261
"Cc1cc2c(Oc3ccc(S(=O)(=O)N(C)C)c(F)c3)cc(C(=O)Nc3cnn(C)n3)cc2o1 [Example 306, 4-{4-[(Dimethylamino)sulfonyl]-3-fluorophenoxy}-2-methyl-N-(2-methyl-2H-1,2,3-triazol-4-yl)-1-benzofuran-6-carboxamide]",185,330,186
"Cc1cc2cc(Oc3ccc(S(C)(=O)=O)cc3)cc(C(=O)Nc3ccccn3)c2o1 [Example 5, 5-(4-Methanesulfonyl-phenoxy)-2-methyl-benzofuran-7-carboxylic acid pyridin-2-ylamide]",-6.3,,
"CCc1cc2c(Oc3ccc(C(=O)N(C)C)cc3)cc(C(=O)Nc3ccc(C)cn3)cc2o1 [Example 276, 4-{4-[(Dimethylamino)carbonyl]phenoxy}-2-ethyl-N-(5-methylpyridin-2-yl)-1-benzofuran-6-carboxamide]",20,,
"Cn1ccc(NC(=O)c2cc(Oc3ccc(C(=O)Nc4ccn(C)n4)nc3)c3c(c2)OC(C)(C)C3)n1 [Example 163, 5-[2,2-Dimethyl-6-(1-methyl-1H-pyrazol-3-ylcarbamoyl)-2,3-dihydro-benzofuran-4-yloxy]-pyridine-2-carboxylic acid (1-methyl-1H-pyrazol-3-yl)-amide]",118,440,137
"Cc1csc2cc(C(=O)Nc3ccn(C)n3)cc(Oc3ccc(C(=O)N(C)C)cc3)c12 [Example 352, 4-{4-[(Dimethylamino)carbonyl]phenoxy}-3-methyl-N-(1-methyl-1H-pyrazol-3-yl)-1-benzothiophene-6-carboxamide]",12.3,,
"Cn1ccc(NC(=O)c2cc(Oc3cnc(C(=O)N4CCC4)nc3)c3c(c2)OC(C)(C)C3)n1 [Example 172, 4-[2-(Azetidine-1-carbonyl)-pyrimidin-5-yloxy]-2,2-dimethyl-2,3-dihydro-benzofuran-6-carboxylic acid (1-methyl-1H-pyrazol-3-yl)-amide]",186,480,169
"Cc1ccc(NC(=O)c2cc(OC(C)C)cc3oc(C(=O)N4CCC4)cc23)nc1 [Example 349, 2-(Azetidine-1-carbonyl)-6-isopropoxy-N-(5-methylpyridin-2-yl)benzofuran-4-carboxamide]",-32.1,,
"Cn1ccc(NC(=O)c2cc(Oc3ccc(C(=O)Nc4ccn(C)n4)c(F)c3)c3c(c2)OC(C)(C)C3)n1 [Example 65, 4-[3-Fluoro-4-(1-methyl-1H-pyrazol-3-ylcarbamoyl)-phenoxy]-2,2-dimethyl-2,3-dihydro-benzofuran-6-carboxylic acid(1-methyl-1H-pyrazol-3-yl)-amide]",147,240,141
"Cc1ccnc(C(C)Oc2cc(C(=O)Nc3ccn(C)n3)cc3c2CC(C)(C)O3)c1 (centres unmarked) [Example 87, 2,2-Dimethyl-4-[1-(4-methyl-pyridin-2-yl)-ethoxy]-2,3-dihydro-benzofuran-6-carboxylic acid (1-methyl-1H-pyrazol-3-yl)-amide]",73.6,8600,136
Cn1ccc(NC(=O)c2cc(Oc3ccc(S(C)(=O)=O)cc3)c3ccoc3c2)n1 [Example 343],82.5,> 10000,
"Cc1ccc(NC(=O)c2cc(Oc3ccc(C(=O)N(C)C)cc3)c3c(C)csc3c2)nc1 [Example 353, 4-{4-[(Dimethylamino)carbonyl]phenoxy}-3-methyl-N-(5-methylpyridin-2-yl)-1-benzothiophene-6-carboxamide]",3.4,,
"Cc1cc2cc(Oc3ccc(S(C)(=O)=O)cc3)cc(C(=O)Nc3ccn(C)n3)c2o1 [Example 4, 5-(4-Methanesulfonyl-phenoxy)-2-methyl-benzofuran-7-carboxylic acid(1-methyl-1H-pyrazol-3-yl)-amide]",14.6,,
"Cc1ccc(NC(=O)c2cc(Oc3ccc(S(C)(=O)=O)cc3)cc3occc23)nc1 [Example 7, 6-(4-Methanesulfonyl-phenoxy)-benzofuran-4-carboxylic acid(5-methyl-pyridin-2-yl)-amide]",99.7,3700,129
"COCCNC(=O)c1ccc(Oc2cc(C(=O)Nc3ccn(C)n3)cc3c2CC(C)(C)O3)cc1F [Example 68, 4-[3-Fluoro-4-(2-methoxy-ethylcarbamoyl)-phenoxy]-2,2-dimethyl-2,3-dihydro-benzofuran-6-carboxylic acid(1-methyl-1H-pyrazol-3-yl)-amide]",146,660,175
"Cc1cc2c(Oc3ccc(S(=O)(=O)N4CCC4)cc3)cc(C(=O)Nc3ccc(Cl)cn3)cc2o1 [Example 300, 4-(4-(Azetidin-1-ylsulfonyl)phenoxy)-N-(5-chloropyridin-2-yl)-2-methyl-benzofuran-6-carboxamide]",53.4,710,56
"Cn1ncc(NC(=O)c2cc(Oc3ccc(-c4ncon4)c(F)c3)c3c(c2)OC(C)(C)C3)n1 [Example 186, 4-(3-Fluoro-4-[1,2,4]oxadiazol-3-yl-phenoxy)-2,2-dimethyl-2,3-dihydro-benzofuran-6-carboxylic acid (2-methyl-2H-[1,2,3]triazol-4-yl)-amide]",135,160,234

# Other lines, results leading:
activation at 10 µM [%],EC50 [nM],Emax [%],SMILES
73.8,7800,133,"COc1ccnc(NC(=O)c2cc(Oc3ccc(S(C)(=O)=O)cc3)c3cc(C(=O)N(C)C)oc3c2)c1 [Example 289, N6-(4-Methoxypyridin-2-yl)-N2,N2-dimethyl-4-[4-(methylsulfonyl)phenoxy]-1-benzofuran-2,6-dicarboxamide]"
69.2,190,71,"CN(C)C(=O)c1ccc(Oc2cc(C(=O)Nc3ccccn3)cc3c2CC(C)(C)O3)cc1 [Example 157, 4-(4-Dimethylcarbamoyl-phenoxy)-2,2-dimethyl-2,3-dihydro-benzofuran-6-carboxylic acid pyridin-2-ylamide]"
212,270,218,"Cn1ccc(NC(=O)c2cc(Oc3ccc(S(C)(=O)=O)cc3Cl)c3c(c2)OC(C)(C)C3)n1 [Example 137, 4-(2-Chloro-4-methanesulfonyl-phenoxy)-2,2-dimethyl-2,3-dihydro-benzofuran-6-carboxylic acid (1-methyl-1H-pyrazol-3-yl)-amide]"
18.8,,,"Cc1cc(NC(=O)c2cc(Oc3ccc(S(C)(=O)=O)cc3)c3cc(C)oc3c2)no1 [Example 255, 2-Methyl-N-(5-methylisoxazol-3-yl)-4-(4-(methylsulfonyl)-phenoxy)-benzofuran-6-carboxamide]"
112,250,102,"CN(C)C(=O)c1ncc(Oc2cc(C(=O)Nc3ccn(C)n3)cc3c2CC(C)(C)O3)cn1 [Example 164, 5-[2,2-Dimethyl-6-(1-methyl-1H-pyrazol-3-ylcarbamoyl)-2,3-dihydro-benzofuran-4-yloxy]-pyrimidine-2-carboxylic acid dimethylamide]"
43.1,> 10000,,"CC(C)Oc1cc(C(=O)Nc2ccn(C)n2)cc2c1CC(CN(C)C)O2 (centres unmarked) [Example 218, 2-Dimethylaminomethyl-4-isopropoxy-2,3-dihydro-benzofuran-6-carboxylic acid (1-methyl-1H-pyrazol-3-yl)-amide]"
172,199,184,"CCNC(=O)c1ccc(Oc2cc(C(=O)Nc3ccn(C)n3)cc3c2CC(C)(C)O3)cn1 [Example 168, 5-[2,2-Dimethyl-6-(1-methyl-1H-pyrazol-3-ylcarbamoyl)-2,3-dihydro-benzofuran-4-yloxy]-pyridine-2-carboxylic acid ethylamide]"
128,2300,139,"CN1CCN(C(=O)c2ccc(Oc3cc(C(=O)Nc4ccn(C)n4)cc4c3CC(C)(C)O4)c(F)c2)CC1 [Example 42, 4-[2-Fluoro-4-(4-methyl-piperazine-1-carbonyl)-phenoxy]-2,2-dimethyl-2,3-dihydro-benzofuran-6-carboxylic acid(1-methyl-1H-pyrazol-3-yl)-amide]"
173,110,216,"Cn1ccc(NC(=O)c2cc(Oc3ccc(S(=O)(=O)C4CC4)c(F)c3)c3c(c2)OC(C)(C)C3)n1 [Example 141, 4-(4-Cyclopropanesulfonyl-3-fluoro-phenoxy)-2,2-dimethyl-2,3-dihydro-benzofuran-6-carboxylic acid (1-methyl-1H-pyrazol-3-yl)-amide]"
